# Patent publication US20090048194A1, “Vagal Afferent Neurons as Targets for Treatment” (Janssen Pharmaceutica N.V., priority 2005, published 2009)
# What was measured:
# [1] = tested on: Nb-infected nodose neurons; test: Patch clamp recording of octreotide on dissociated Nb-infected nodose neurons; type: cell-based, Balb/c mice; settings: for effect on number of action potentials at 2× rheobase: infected nodose neurons
# Description: (§1) Balb/c mice were injected intraperitoneally with the retrograde labelling agent cholera toxin B 488 3-7 days prior to experiments. Mice were then anaesthetized with ketamine/xylazine, the spinal cord removed and DRG neurons isolated (T10-T13) for electrophysiological recordings 18-24 hours after their dissociation and incubation, and mounted on the stage of an inverted microscope (Leica DMIRE2)) for both bright-field and fluorescence observation. Cholera toxin labelled neurons were identified by their green fluorescence under the N3 filter system (Leica). Whole cell currents and voltage clamp experiments were performed by using MultiClamp 7A amplifier and digitized with a DigiData 1322A converter (Axon Instruments). Stimulation and data acquisition were obtained by the pClamp 9 program (Axon Instruments). Signals were sampled at 10 kHz or 20 kHz, and low-pass filtered at 4 KHz. The series resistance was compensated. Neurons were excluded from analysis if the seal resistance or access resistance was unstable, or if they fired spontaneous action potentials.
# (§2) Borosilicate glass (Harvard) was pulled with a P97 micropipette puller (Sutter, Calif.), and fire polished by a M 200 microforge (World Precision Instrument) to a tip resistance of 5-10 MΩ. A silver-silver chloride pellet (world Precision Instrument) was placed in the recording dish as the reference electrode. The normal extracellular Kreb's solution contained (in mM): NaCl 118.0, KCl 4.7, NaH2PO4 1.0, NaHCO3 25.0, MgSO4 1.2, CaCl2 2.5, D-Glucose 11.1, with pH adjusted to 7.3 by using NaOH. The normal intracellular solution contained (in mM): HEPES 10.0, KCl 130.0, MgCl2 1.0, CaCl2 1.0, EGTA 2.0, K2ATP 2, Na3GTP 0.2, titrated with KOH to pH 7.25. The extracellular solution for isolating TTX-resistance Na currents composed of (in mM): NaCl 145.0, KCl 4.8, HEPES 10.0, MgCl2 1.0, CaCl2 2.5, D-glucose 11.1, TTX 0.0003, CdCl 0.5, 4-AP 1.0, TEA-Cl 5.0, CsCl 2.0, pH adjusted to 7.3 by using NaOH, and the corresponding intracellular solution was (in mM): EPES 10.0, CsCl 130.0, MgCl2 1.0, CaCl2 1.0, EGTA 2.0, K2ATP 2.0, Na3GTP 0.2, pH adjusted to 7.25 by using CsOH. All experiments were performed at temperature of 30° C.-33° C.
# (§3) Data were analyzed by using pClamp 9 software (Axon Instruments). Neurons were recorded in both current-clamp and voltage-clamp configurations. Voltage clamp recordings were used to generate current-voltage relationships for cells. Current clamp recordings were used to determine the rheobase for action potential firing of neurons. The number of action potentials elicited at 2× rheobase was subsequently assessed in current clamp mode.
# (§4) Nodose neurons were dissociated and cultured in preparation for patch clamp experiments as has been described elsewhere. These nodose neurons were either obtained from Balb/c mice 21 days after infection with Nb or from sham mice, thus enabling a comparison of the effects of octreotide on both sham and Nb-infected nodose neurons.
# (§5) Octreotide (1 μM) was applied to individual neurons via a fast perfusion system. Octreotide's effects were recorded on the cell's resting membrane potential (RMP) and the number of action potentials fired at 2× rheobase of each neuron.
# sham nodose neurons = test: Patch clamp recording of octreotide on dissociated sham nodose neurons; type: cell-based, Balb/c mice; settings: for effect on number of action potentials at 2× rheobase: sham nodose neurons
# Description: as §1, §2, §3, §4, §5
# [2] = octreotide 1 μM, listed as octreotide
compound,measurement,setting,value
"C[C@@H](O)[C@@H]1NC(=O)[C@H](CCCCN)NC(=O)[C@@H](Cc2c[nH]c3ccccc23)NC(=O)[C@H](Cc2ccccc2)NC(=O)[C@@H](NC(=O)[C@H](N)Cc2ccccc2)CSSC[C@@H](C(=O)N[C@H](CO)[C@@H](C)O)NC1=O [Octreotide, octreotide]",difference between the effect of octreotide on sham and infected neurons (action potentials at 2× rheobase),"[1]; 1 μM octreotide, sham vs infected, FIG. 24",no significant difference
same,effect on RMP,"[1]; infected neurons, octreotide 1 μM",no significant effect
same,resting membrane potential (RMP),"[1]; infected neurons, octreotide 1 μM, n=25",−51.7±2.1 mV
same,number of action potentials evoked at 2× rheobase (FIG. 23 example),"[1]; infected nodose neuron, after 1 μM octreotide, control in Krebs 9",2 action potentials
same,effect on number of action potentials at 2× rheobase,[1]; octreotide 1 μM,reduced the number of action potentials
same,effect on number of action potentials at 2× rheobase,[1]; [2],reduces the number of action potentials
same,effect on RMP,"sham nodose neurons; sham neurons, octreotide 1 μM",no significant effect
same,resting membrane potential (RMP),"sham nodose neurons; sham neurons, octreotide 1 μM, n=27",−54.7±2.1 mV
same,number of action potentials evoked at 2× rheobase (FIG. 23 example),"sham nodose neurons; sham nodose neuron, after 1 μM octreotide, control in Krebs 2",1 action potential
same,effect on number of action potentials at 2× rheobase,sham nodose neurons; octreotide 1 μM,reduced the number of action potentials
same,effect on number of action potentials at 2× rheobase,sham nodose neurons; [2],reduces the number of action potentials
